Reference: patent US20240271180A1, “METHOD FOR DETECTING CONTAMINATING LIPASE ACTIVITY” (BOEHRINGER INGELHEIM INTERNATIONAL GMBH, priority 2020, published 2024)

Legend:
[1] = Auto-hydrolysis of 4-MU esters; assay type: physicochemical; conditions: 30 μM, AMT assay buffer, 10 mM CHAPS, pH 5.5, 1800 seconds; compared to e.g. butyrate (4-MUB)
[2] = system: lipase activity in drug substance samples (Product G, B, F) and UF/DF sample of Product D; assay: 4-MUD lipase assay with or without CHAPS; assay type: biochemical; conditions: 10 mM CHAPS (above CMC) vs without, 30 μM 4-MUD, pH 5.5
Protocol: First, a surfactant was tested above its CMC (critical micelle concentration). Therefore 10 mM CHAPS were added to the assay. […] The samples tested were drug substance samples comprising Product G, Product B, Product F and a sample following ultrafiltration/diafiltration of Product D, each added at 72 μL per well. […] Without being bound by theory it is hypothesized that a surfactant creates an environment that promotes lipase activity by allowing the rearrangement and opening of the lid or flap, which has been described to cover the active site (Grochulski P, Li Y, Schrag J D, et al. Protein Sci 1994; 3:82-91 and Grochulski P, Bouthillier F, Kazlauskas R J, et al. Biochemistry 1994; 33:3494-500). Therefore, a concentration of 10 mM CHAPS in the final reaction-mix was selected.

[3] = system: hydrolytic activity of PPL and in BDS B and BDS E; assay: Comparison of surfactants in 4-MUD lipase assay; assay type: biochemical; conditions: 10 mM CHAPS vs 0.25% Triton X-100 vs 0.25% Triton X-100 and 0.125% gum arabicum, pH 5.5
Protocol: Therefore, hydrolytic activity of PPL (0.024 mg/ml in the reaction mixture) and in BDS B and BDS E (2.4 mg/ml in the reaction mixture) was measured in ATM buffer, pH 5.5, with either 10 mM CHAPS, 0.25% Triton X-100 or 0.25% Triton X-100 and 0.125% gum arabicum. […] Gum arabicum is an emulsifier and no effect of gum arabicum on the activity has been observed in any of the experiments.

[4] = derivable from literature; cited from earlier work
[5] = system: hydrolytic activity of an exemplary drug product sample; conditions: NaCl 7.8125-1000 mM, 30 μM 4-MUD, AMT buffer without NaCl, pH 5.5
Protocol: Therefore, the influence of the ionic strength on the measured hydrolytic activity was tested. Hydrolytic activity of an exemplary drug product sample was measured in the presence of varying concentrations of NaCl (1000 mM-7.8125 mM).

[6] = system: hydrolytic activity of a drug product sample (Product D); assay: 4-MUD lipase assay with Orlistat; assay type: biochemical; conditions: Orlistat 7.3 nM-20 μM, 30 μM 4-MUD, AMT buffer pH 5.5
[7] = system: hydrolytic activity responsible for polysorbate degradation in a drug product sample (Product D); assay: PS20 degradation in drug product, HPLC-CAD; conditions: 1 μM Orlistat, 0.2 mg/mL PS20, RT, pH 5.5, up to 56 days, vs control (DMSO only)
PPL = target: T1, PPL (Sus scrofa, UniProt P00591); conditions: Jahn et al.; cited from earlier work
T1 sequence (P00591 1-450): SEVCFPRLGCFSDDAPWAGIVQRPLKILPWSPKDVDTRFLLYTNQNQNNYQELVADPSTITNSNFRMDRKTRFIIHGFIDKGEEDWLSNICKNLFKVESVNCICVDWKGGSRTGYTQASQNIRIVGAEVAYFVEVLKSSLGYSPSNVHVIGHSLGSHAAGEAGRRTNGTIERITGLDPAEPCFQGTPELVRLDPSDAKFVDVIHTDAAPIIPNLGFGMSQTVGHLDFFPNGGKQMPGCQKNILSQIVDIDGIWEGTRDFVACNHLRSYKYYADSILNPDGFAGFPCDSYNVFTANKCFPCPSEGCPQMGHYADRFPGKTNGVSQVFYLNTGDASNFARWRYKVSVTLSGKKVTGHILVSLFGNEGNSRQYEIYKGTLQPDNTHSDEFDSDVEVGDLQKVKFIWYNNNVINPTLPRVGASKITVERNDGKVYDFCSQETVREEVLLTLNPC

With CCCCCCCCCC(=O)Oc1ccc2c(C)cc(=O)oc2c1 [4-MUD, 4-methylumbelliferyl decanoate] the auto-hydrolysis [1] was “better resistance to auto-hydrolysis”.
In the case of C[C@H](CCC(=O)NCCC[N+](C)(C)CCCS(=O)(=O)[O-])[C@H]1CC[C@H]2[C@@H]3[C@H](O)C[C@@H]4C[C@H](O)CC[C@]4(C)[C@H]3C[C@H](O)[C@]12C [CHAPS, 3-[(3-cholamidopropyl)dimethylammonio]-1-propanesulfonate], the “effect on lipase hydrolysis” value [2] is listed as “lipase hydrolysis was increased”, the “hydrolytic activity compared between surfactants” value [3] is listed as “outperforms Triton X-100 and Triton X-100 and gum arabicum” and the “critical micelle concentration (CMC)” value [4] is listed as “about 6 mM”.
For C[C@H](CCC(=O)NCCC[N+](C)(C)CC(O)CS(=O)(=O)[O-])[C@H]1CC[C@H]2[C@@H]3[C@H](O)C[C@@H]4C[C@H](O)CC[C@]4(C)[C@H]3C[C@H](O)[C@]12C (stereo partly shown) [CHAPSO, 3-([3-Cholamidopropyl)dimethylammonio]-2-hydroxy-1-propanesulfonate], the “critical micelle concentration (CMC)” value [4] is listed as “about 8 mM”.
For [Cl-].[Na+] [NaCl], the “NaCl concentration at which lipase activity decreased” value [5] was at least 250 mM.
With CCCCCCCCCCC[C@@H](C[C@@H]1OC(=O)[C@H]1CCCCCC)OC(=O)[C@H](CC(C)C)NC=O [Orlistat] the “inhibition of lipase activity” value [6] was “inhibited lipase activity in a concentration dependent manner” and the “degradation of PS20” value [7] was “reduced degradation of PS20”.
In the case of CCCCCCCCCCCC[N+](C)(C)CCCS(=O)(=O)[O-] [Zwittergent 3-12, n-Dodecyl-N,N-dimethyl-3-ammonio-1-propanesulfonate], the “critical micelle concentration (CMC)” value [4] is listed as 2 to 4 mM.
In the case of “polyethylene glycol tert-octylphenyl ether [Triton X-100]”, the “effect on PPL activity” value (PPL) is listed as “de-activating effect”.
